Measured values: patent US8648211B2, “Surface-modifying silicone elastomers” (priority 2009, dated 2014)

Experiments:
Assay type in all cases: physicochemical
[1] = Wetting of polystyrene by aqueous surfactant solutions (drop shape analyzer); conditions: for surface area of drop versus buffer control on polystyrene: 0.1 wt % (0.2 wt %, 0.5 wt %) in phosphate buffer pH=7
Procedure: (§1) ^1H NMR and ^13C NMR spectra were obtained on Bruker AC-200 (200-MHz) spectrometer. The molecular weight and mass spectra were determined on a Micromass Global Q-TOF Ultima (MALDI/CapLC-ESI Quadrupole Time of Flight) Mass Spectrometer. ATR-FTIR spectra were obtained on Bio-Rad FTS-40 (Fourier transform IR) spectrometer with an ATR accessory, on which a 45° rectangle ZnSe crystal was used. Surface water contact angle and surface tension were recorded using a Krüss V1.50 drop shape analyzer.
(§2) The ability of solutions of APS and related compounds to wet substrates was established using a drop shape analyzer. The contact angles and total spreading were established immediately after placing an aqueous drop volume ˜0.02 ml onto the surface of polystyrene (a new Petri dish) or a cleaned glass slide.
(§3) The ability of APS to disperse an aqueous phosphate buffer solution (pH=7) was determined on both hydrophobic (polystyrene) and hydrophilic (glass) surfaces. […] By contrast, when 1.5 wt % APS was included in the buffer, the maximum wetting diameter area on polystyrene was close to 6.16 cm^2, close to 200 times the area of the original buffer solution. Thus, APS has characteristics of typical superwetters.

[2] = Water wetting (contact angle, spreading) on surface-modified PDMS
Procedure: as §1
(§4) The ability of water to wet out a variety of surface modified silicones was also established using the drop shape analyzer. […] Prior to each test, the coupons were thoroughly washed by DI water (FIG. 8).
The magnitude of spreading of APS in water was examined, and water on APS tethered to silicone, but not yet considered is the rate of spreading: rapid rates of spreading are also emblematic of superwetters. The water spreading rate on APS-modified PDMS was calculated according to a literature method^26 where: spreading rate=dD/dt (1) and, spreading area=dΔS/dt, (2) wherein D is the diameter of water droplet, S is the surface area covered by water and t is the spreading time. […] That is, replacing a terminal alcohol, acetate, etc., on the PEG block with an allyl group leads only to subtle changes in wetting properties. The situation is quite different when the superwetter is tethered.

[3] = Wetting of glass by aqueous surfactant solutions (drop shape analyzer); conditions: 0.1 wt % (0.2 wt %, 0.5 wt %) in phosphate buffer pH=7
Procedure: as §1, §2, §3

[4] = Shelf-life of APS-modified PDMS stored in air, tested monthly over 5 months
Source text: as §4
The shelf-life of the tethered APS was also established by testing spreading behavior monthly over a period of 5 months: samples of APS-modified surfaces were stored without any special protection on the laboratory bench. Subtle changes were observed over time. While the final contact angle (approaching zero) of water droplets was still achieved after 5 months, spreading rates changed appreciably. Rather than two distinct spreading rates, the droplet would spread to a specific radius, stop for several (typically up to 10) seconds and then spread to a new larger radius. This start-stop-start-stop process was repeated up to about 8 times at which point the approximately 0° contact angle was achieved.

[5] = Hydrolytic stability of APS-modified PDMS soaked in pH 4 and pH 10 solutions
Procedure: as §4
The hydrolytic stability of APS-modified PDMS elastomers was tested by soaking for extended periods of time in aqueous pH=4 and pH=10 solutions. […] However, while spreading is impeded after the surface is exposed to such conditions, the water contact angle can still decrease to 20° over 2-3 minutes. The tethered APS is thus more resistant to hydrolytic degradation than APS in solution. Further degradation while soaking the tethered APS in an aqueous solution occurred in the second week, after which no superspreading effect was observed: contact angles decreased only to about 60° over 1-2 minutes.

[6] = Stability of aqueous surfactant solutions (decomposition in water)
Source text: The durability and environmental stability of modified surfaces are factors to consider for their use in real applications. While silicones are normally very stable to degradation, provided that the conditions remain near neutrality, branched trisiloxanes are notoriously unstable to hydrolysis.^27 Superwetters are usually added to the agents to be dispersed and then used immediately in pH 7 buffers. […] However, it was possible that tethering the superwetter to a surface would change the hydrolytic susceptibility.

[7] = 0.02 ml water on APS-modified silicone elastomer
[8] = PDMS 1 wt % DC1107 grafted with 14.7 wt % APS, 0.02 ml water

Diallyl-Terminated PEO [DAP]
surface area of drop versus buffer control on polystyrene [1]: only marginally larger surface areas | superwetting properties of compound or compound-modified surfaces ([2]; in aqueous solution and grafted to PDMS): do not have superwetting properties | lowest contact angle of grafted PDMS ([2]; pure DAP grafted to PDMS at 10, 20, 50% in THF): 80 ° | surface area of drop versus buffer control on glass [3]: only marginally larger surface areas

bis-heptamethyltrisiloxanyl-PEG [SiPS]
surface area of drop versus buffer control on polystyrene [1]: only marginally larger surface areas | surface area of drop versus buffer control on glass [3]: only marginally larger surface areas

Allyl PEO Siloxane [APS]
area of one drop after spreading ([1]; 1 wt % aqueous solution, from 0.03 cm^2, in 5 seconds, surface not stated, data not shown): 4.91 cm^2 | maximum wetting diameter area on polystyrene ([1]; 1.5 wt % in aqueous phosphate buffer pH=7, 5 μl buffer control 0.031 cm^2): ~6.16 cm^2 | wetting area relative to the area of the original buffer solution ([1]; 1.5 wt % in phosphate buffer pH=7, polystyrene): ~200 times | spreading of aqueous solutions compared with commercial superwetter L77 ([1]; degree and velocity of spreading, surface not stated): approximately the same degree and at a similar velocity to the commercial superwetter L77 | spreading rate of water droplet, first 3 seconds ([2]; 0.02 ml water on APS-modified PDMS (1 wt % DC1107, 14.7 wt % APS)): ~1 mm s^−1 | final area covered by water relative to original droplet size [2, 7]: about 15 times | water contact angle within about 1 minute [2, 7]: below 10 ° | contact angle at the edge of the spread droplet when the drop ceases to migrate ([2]; APS-modified PDMS): ~0 ° | increase of water spreading area during first 3 seconds [2, 8]: 8 times | spreading rate of water droplet, subsequent 30 seconds [2, 8]: approximately 0.1 mm s^−1 | water contact angle on APS-grafted silicone surfaces within one minute ([2]; distilled water, in some cases, depends on surface coverage): nearly zero | Contact Angle (°) ([2]; water droplets 0.02 ml on modified PDMS prepared with 1% DC1107): 0 ° | Wetting Diameter (mm) ([2]; water droplets 0.02 ml, initial radius ~1.0 mm, final diameter after 1 min, modified PDMS, 1% DC1107): 8 mm | final water contact angle after 5 months ([4]; APS-modified surface stored on the laboratory bench): approximately 0 ° | time surface remained superhydrophilic ([4]; APS-modified surface, storage in air): at least 5 months | water contact angle after soaking, second week ([5]; APS-modified PDMS soaked in aqueous solution, reached over 1-2 minutes, no superspreading): about 60 ° | water contact angle after soaking, first week ([5]; APS-modified PDMS soaked in pH=4 and pH=10 solutions, reached over 2-3 minutes): 20 ° | stability of aqueous solution [6]: decomposed in water over a few days to a week
